Laboratory results as given in patent publication US9024027B2, “Derivatives of 1-phenyl-2-pyridinyl alkyl alcohols as phosphodiesterase inhibitors” (Chiesi Farmaceutici S.p.A., priority 2011, dated 2015).

Assays:
[1] = human, microsomes
Protocol: Test compounds in duplicate at the final concentration of 1 μM are dissolved in DMSO (DMSO final concentration 0.5% v/v) and pre-incubated for 10 minutes at 37° C. in potassium phosphate buffer pH 7.4, 3 mM MgCl2, with liver microsomes at the final concentration of 0.5 mg/ml. After the pre-incubation period, reactions are started by adding the cofactors mixture (NADP, Glc6P, Glc6P-DH); samples are taken at time 0, 5, 10, 15, 20 and 30 minutes, added to acetonitrile to stop reaction and centrifuged. The supernatants are analysed and quantified by LC-MS/MS.
A control sample without cofactors is always added in order to check the stability of test compounds in the matrix. […] Percent loss of substrate in incubation is determined to estimate in-vitro half life and in-vitro intrinsic clearance of compounds. […]
where: • k is calculated from the exponential fitting decay of the area values • V=incubation volume (mL)/mg protein • y=microsomal protein yield=52.5 mg/g liver Method b.
Test compounds are incubated, in duplicate, at the concentration of 1 μM with liver microsomes (0.8 mg protein/mL) in KHB buffer (pH 7.4) at 37° C. in the presence of 1 mM NADPH. […] The supernatant is analysed by LC-MS/MS for unchanged compounds.
Test compounds are incubated with liver microsomes in KHB buffer in the absence of NADPH for 0 and 60 minutes, as control. […] The half-life is calculated from the relationship: […]

[2] = test system: LPS-induced TNF-α release in peripheral blood mononuclear cells (PBMCs); test: In vitro determination of PDE4 inhibitory activity in the PBMCs assay (LPS-induced TNF-α release); assay type: cell-based; details: PBMC; human PBMCs, LPS 3 ng/ml, 18 hours; read-out: PDE4 inhibition (IC50, 50% inhibition of LPS-induced TNF-α release)
Protocol: The assay, which is based on the known inhibitory activity exerted by PDE4 inhibitors on the lipopolyshaccarides (LPS)-induced tumour necrosis factor-alpha (TNF-α release in peripheral blood mononuclear cells (PBMCs), was performed according to a method previously described (Hatzelmann A et al., J. Pharmacol. Exp. Ther., 2001; 297:267-279; and Draheim R et al., J. Pharmacol. Exp. Ther., 2004; 308:555-563, both of which are incorporated herein by reference in their entireties. Cryopreserved human PBMCs, (100 μl/well) were incubated in 96-well plates (10^5 cells/well), for 30 minutes, in the presence or absence (50 microl) of the test compounds whose concentrations ranged from 10^−12 M to 10^−6 M or from 10^−13 M to 10^−7 M. Subsequently, LPS (3 ng/ml) was added. After 18 hours of incubation at 37° C. in a humidified incubator under an atmosphere of 95% air and 5% CO2, culture medium was collected and TNF-α measured by ELISA.
The results of the tested compounds, representatives of the invention, expressed as mean±95% confidence limits of the molar concentration of the test compound producing 50% inhibition of LPS-induced TNF-α release (IC50) are shown in the following Table: […]

For `O=C(Cn1c(=O)oc2ccccc21)O[C@@H](Cc1c(Cl)c[n+]([O-])cc1Cl)c1ccc(OC(F)F)c(OCC2CC2)c1` [Compound 24], the “intrinsic Clearance” value [1] was > 15 mL/min/g.

Work on `COc1cc2ccn(CC(=O)O[C@@H](Cc3c(Cl)c[n+]([O-])cc3Cl)c3ccc(OC(F)F)c(OCC4CC4)c3)c2cc1OC` [Compound 54] yielded an IC50 [2] of 1 to 10 nM.

With `CS(=O)(=O)N(CCN1CCCC1)c1ccc2c(c1)C(=O)N(CC(=O)O[C@@H](Cc1c(Cl)c[n+]([O-])cc1Cl)c1ccc(OC(F)F)c(OCC3CC3)c1)C2=O` [Compound 183] the IC50 [2] was < 1 nM.

For `Nc1cccc2c1C(=O)N(CC(=O)O[C@@H](Cc1c(Cl)c[n+]([O-])cc1Cl)c1ccc(OC(F)F)c(OCC3CC3)c1)C2=O` [Compound 12, (S)-4-(2-(2-(4-amino-1,3-dioxoisoindolin-2-yl)acetoxy)-2-(3-(cyclopropylmethoxy)-4-(difluoromethoxy)phenyl)ethyl)-3,5-dichloropyridine 1-oxide], the IC50 [2] was < 1 nM.

For `COCC(=O)Nc1cccc2c1C(=O)N(CC(=O)O[C@@H](Cc1c(Cl)c[n+]([O-])cc1Cl)c1ccc(OC(F)F)c(OCC3CC3)c1)C2=O` [Compound 173, (S)-3,5-dichloro-4-(2-(3-(cyclopropylmethoxy)-4-(difluoromethoxy)phenyl)-2-(2-(4-(2-methoxyacetamido)-1,3-dioxoisoindolin-2-yl)acetoxy)ethyl)pyridine 1-oxide], the IC50 [2] was < 1 nM.

In the case of `O=C(Cn1c(=O)n(CCN2CCOCC2)c(=O)c2ccccc21)O[C@@H](Cc1c(Cl)c[n+]([O-])cc1Cl)c1ccc(OC(F)F)c(OCC2CC2)c1` [Compound 38], the IC50 [2] is reported as < 1 nM.

In the case of `COc1ccc2c(c1)C(=O)C(=O)N2CC(=O)O[C@@H](Cc1c(Cl)c[n+]([O-])cc1Cl)c1ccc(OC(F)F)c(OCC2CC2)c1` [Compound 57, (S)-3,5-dichloro-4-(2-(3-(cyclopropylmethoxy)-4-(difluoromethoxy)phenyl)-2-(2-(5-methoxy-2,3-dioxoindolin-1-yl)acetoxy)ethyl)-pyridine 1-oxide], the IC50 [2] is reported as < 1 nM.

With `COc1ccc2c(c1)N(CC(=O)O[C@@H](Cc1c(Cl)c[n+]([O-])cc1Cl)c1ccc(OC(F)F)c(OCC3CC3)c1)C(=O)C2=O` [Compound 64, (S)-3,5-dichloro-4-(2-(3-(cyclopropylmethoxy)-4-(difluoromethoxy)phenyl)-2-(2-(6-methoxy-2,3-dioxoindolin-1-yl)acetoxy)ethyl)-pyridine 1-oxide] the IC50 [2] was < 1 nM.

Work on `CS(=O)(=O)Nc1ccc2c(c1)C(=O)C(=O)N2CC(=O)O[C@@H](Cc1c(Cl)c[n+]([O-])cc1Cl)c1ccc(OC(F)F)c(OCC2CC2)c1` [Compound 99, (S)-3,5-dichloro-4-(2-(3-(cyclopropylmethoxy)-4-(difluoromethoxy)phenyl)-2-(2-(5-(methylsulfonamido)-2,3-dioxoindolin-1-yl)acetoxy)ethyl)pyridine 1-oxide] yielded an IC50 [2] of 1 to 10 nM.

With `CC(=O)N1CCN(CCN(c2ccc3c(c2)C(=O)N(CC(=O)O[C@@H](Cc2c(Cl)c[n+]([O-])cc2Cl)c2ccc(OC(F)F)c(OCC4CC4)c2)C3=O)S(C)(=O)=O)CC1` [Compound 214] the IC50 [2] was < 1 nM.

For `CS(=O)(=O)N(Cc1ccccn1)c1ccc2c(c1)C(=O)N(CC(=O)O[C@@H](Cc1c(Cl)c[n+]([O-])cc1Cl)c1ccc(OC(F)F)c(OCC3CC3)c1)C2=O` [Compound 190], the IC50 [2] was < 1 nM.

In the case of `CS(=O)(=O)Nc1ccc2c(c1)CCN2CC(=O)O[C@@H](Cc1c(Cl)c[n+]([O-])cc1Cl)c1ccc(OC(F)F)c(OCC2CC2)c1` [Compound 131, (S)-3,5-dichloro-4-(2-(3-(cyclopropylmethoxy)-4-(difluoromethoxy)phenyl)-2-(2-(5-(methylsulfonamido)indolin-1-yl)acetoxy)-ethyl)pyridine 1-oxide], the IC50 [2] is reported as 1 to 10 nM.

For `CS(=O)(=O)Nc1ccc2c(c1)C(=O)N(CC(=O)O[C@@H](Cc1c(Cl)c[n+]([O-])cc1Cl)c1ccc(OC(F)F)c(OCC3CC3)c1)C2=O` [Compound 167, (S)-3,5-dichloro-4-(2-(3-(cyclopropylmethoxy)-4-(difluoromethoxy)phenyl)-2-(2-(5-(methylsulfonamido)-1,3-dioxoisoindolin-2-yl)acetoxy)ethyl)pyridine 1-oxide], the IC50 [2] was < 1 nM.

For `CS(=O)(=O)N(CCN1CCOCC1)c1ccc2c(c1)CC(=O)N2CC(=O)O[C@@H](Cc1c(Cl)c[n+]([O-])cc1Cl)c1ccc(OC(F)F)c(OCC2CC2)c1` [Compound 243, (S)-3,5-dichloro-4-(2-(3-(cyclopropylmethoxy)-4-(difluoromethoxy)phenyl)-2-(2-(5-(N-(2-morpholinoethyl)methylsulfonamido)-2-oxoindolin-1-yl)acetoxy)ethyl)pyridine 1-oxide], the IC50 [2] was < 1 nM.

With `O=C(CN1C(=O)C(=O)c2ccccc21)O[C@@H](Cc1c(Cl)c[n+]([O-])cc1Cl)c1ccc(OC(F)F)c(OCC2CC2)c1` [Compound 25] the IC50 [2] was < 1 nM.

In the case of `CS(=O)(=O)N(CCN1CCSCC1)c1ccc2c(c1)C(=O)N(CC(=O)O[C@@H](Cc1c(Cl)c[n+]([O-])cc1Cl)c1ccc(OC(F)F)c(OCC3CC3)c1)C2=O` [Compound 215], the IC50 [2] is reported as < 1 nM.

In the case of `O=C(Cn1c(=O)c2ccccc2n(CCN2CCOCC2)c1=O)O[C@@H](Cc1c(Cl)c[n+]([O-])cc1Cl)c1ccc(OC(F)F)c(OCC2CC2)c1` [Compound 39], the IC50 [2] is reported as < 1 nM.

For `CS(=O)(=O)N(Cc1cccnc1)c1ccc2c(c1)C(=O)N(CC(=O)O[C@@H](Cc1c(Cl)c[n+]([O-])cc1Cl)c1ccc(OC(F)F)c(OCC3CC3)c1)C2=O` [Compound 186], the IC50 [2] was < 1 nM.

In the case of `O=C(Cn1c(=O)c2ccccc2c(=O)n1CCN1CCOCC1)O[C@@H](Cc1c(Cl)c[n+]([O-])cc1Cl)c1ccc(OC(F)F)c(OCC2CC2)c1` [Compound 40], the IC50 [2] is reported as 1 to 10 nM.

For `COc1ccnc(CN(c2ccc3c(c2)C(=O)N(CC(=O)O[C@@H](Cc2c(Cl)c[n+]([O-])cc2Cl)c2ccc(OC(F)F)c(OCC4CC4)c2)C3=O)S(C)(=O)=O)c1` [Compound 194], the IC50 [2] was 1 to 10 nM.

With `COc1ccc2c(ccn2CC(=O)O[C@@H](Cc2c(Cl)c[n+]([O-])cc2Cl)c2ccc(OC(F)F)c(OCC3CC3)c2)c1` [Compound 45, (S)-3,5-dichloro-4-(2-(3-(cyclopropylmethoxy)-4-(difluoromethoxy)phenyl)-2-(2-(5-methoxy-1H-indol-1-yl)acetoxy)ethyl)pyridine 1-oxide] the IC50 [2] was < 1 nM.

`CS(=O)(=O)Nc1cn(CC(=O)O[C@@H](Cc2c(Cl)c[n+]([O-])cc2Cl)c2ccc(OC(F)F)c(OCC3CC3)c2)c2ccccc12` [Compound 93, (S)-3,5-dichloro-4-(2-(3-(cyclopropylmethoxy)-4-(difluoromethoxy)phenyl)-2-(2-(3-(methylsulfonamido)-1H-indol-1-yl)acetoxy)ethyl)pyridine 1-oxide] showed an IC50 [2] of 1 to 10 nM.

In the case of `O=C(CN1C(=O)c2cccc(NO)c2C1=O)O[C@@H](Cc1c(Cl)c[n+]([O-])cc1Cl)c1ccc(OC(F)F)c(OCC2CC2)c1` [Compound 170], the IC50 [2] is reported as < 1 nM.

Compound `O=C(Cn1ccc2cccnc21)O[C@@H](Cc1c(Cl)c[n+]([O-])cc1Cl)c1ccc(OC(F)F)c(OCC2CC2)c1` [Compound 60] has an IC50 [2] of 1 to 10 nM.
